Tests used:
[1] = system: solid xenograft and spontaneous human tumor and rodent tumor models; experiment: Tumor uptake and retention of CLR1404 in tumor models; format: in vivo; conditions: over fifty solid xenograft and spontaneous human tumor and rodent tumor models
Text: (§1) We have developed several series of tumor-selective radiolabeled ether and alkyl phospholipid compounds for imaging, characterization, and treatment of malignant tumors. […] Cellular signaling and regulation of phospholipids, including phospholipase-D and its isoforms, as well as Phosphatase and Tensin Homologue Deleted from Chromosome-10 (PTEN) and phosphatidylinositol phosphate (PIPn) pathways, are known to be directly involved in upstream regulation of many key oncogenic pathways. We now have strong evidence that the uptake and retention of our PLE analogs is due at least in part to these upstream regulation and signaling cancer cell pathways.

[2] = system: benign or premalignant lesions or inflammatory lesions; experiment: Localization of CLR1404 in non-malignant lesions; format: in vivo; conditions: stated in contrast to 18F-FDG
Text: as §1

C[N+](C)(C)CCOP(=O)([O-])OCCCCCCCCCCCCCCCCCCc1ccc(I)cc1 [CLR1404, 18-(p-iodophenyl)octadecyl phosphocholine] was tested, and the “uptake and retention in tumors” value [1] was “striking uptake and prolonged selective retention properties” and the “localization in benign, premalignant or inflammatory lesions” value [2] was “does not localize in benign or premalignant lesions or in inflammatory lesions”.

— patent publication US9339564B2, “Ether and alkyl phospholipid compounds for treating cancer and imaging and detection of cancer” (Cellectar, Inc., priority 2009, dated 2016)
